Patent US11826351B2, “Compounds useful as kinase inhibitors” (Loxo Oncology, Inc., priority 2015, dated 2023)
Like-named read-outs stand apart in the source and are kept apart here.

Experiments:
[1] = molecular target: T1, Recombinant BTK^WT kinase (Homo sapiens, UniProt Q06187); assay: BTK WT binding affinity (LanthaScreen TR-FRET); details: Kinase Tracer 236, 5 h incubation
T1 construct: purchased Invitrogen
In short: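 Tracer-displacement TR-FRET: 2.5 nM recombinant BTK^WT, 2 nM Eu anti-His antibody and 15 nM Kinase Tracer 236 incubated with varying inhibitor concentrations for 5 h in Kinase Buffer A. Signal read at 340 nm excitation, 615/665 nm emission; IC50 from variable-slope log[inhibitor]–response fit.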

[2] = molecular target: T2, Recombinant EGFR (Homo sapiens, UniProt P00533); assay: EGFR binding affinity (LanthaScreen TR-FRET); details: Kinase Tracer 199, 5 h incubation
T2 construct: purchased Invitrogen
In short: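 TR-FRET binding (LanthaScreen) with recombinant EGFR; signal measured across a compound concentration range. IC50 obtained by fitting RFU against log[inhibitor] to a variable-slope model.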

[3] = system: OCI-Ly10 human DLBCL cells; assay: OCI-Ly10 anti-proliferative activity (Resazurin); format: cell-based; details: OCI-Ly10 cells, 72 h compound treatment, Resazurin, read-out: Proliferation Assay OCI-Ly10-20% FBS
In short: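 OCI-Ly10 human DLBCL cells, whose growth depends on NFκB signalling, were seeded at 7.5×10^3 cells per well in 96-well plates with a range of compound concentrations and kept at 37° C for 72 h. Resazurin was then added, and after 5 h fluorescence was read at 590 nm.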

[4] = molecular target: T3, Recombinant BTK^C481S kinase (Homo sapiens, UniProt Q06187, C481S); assay: BTK C481S binding affinity (LanthaScreen TR-FRET); details: Kinase Tracer 236, 5 h incubation
T3 construct: purchased SignalChem
In short: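 BTK C481S tracer-displacement TR-FRET: 5 nM His-tagged kinase, 2 nM Eu anti-His antibody and 30 nM Kinase Tracer 236 incubated with titrated inhibitor for 5 h in Kinase Buffer A. Read at 340 nm excitation, 615/665 nm emission; IC50 from variable-slope log[inhibitor]–response fit.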

T3 sequence (Q06187 whole entry C481S): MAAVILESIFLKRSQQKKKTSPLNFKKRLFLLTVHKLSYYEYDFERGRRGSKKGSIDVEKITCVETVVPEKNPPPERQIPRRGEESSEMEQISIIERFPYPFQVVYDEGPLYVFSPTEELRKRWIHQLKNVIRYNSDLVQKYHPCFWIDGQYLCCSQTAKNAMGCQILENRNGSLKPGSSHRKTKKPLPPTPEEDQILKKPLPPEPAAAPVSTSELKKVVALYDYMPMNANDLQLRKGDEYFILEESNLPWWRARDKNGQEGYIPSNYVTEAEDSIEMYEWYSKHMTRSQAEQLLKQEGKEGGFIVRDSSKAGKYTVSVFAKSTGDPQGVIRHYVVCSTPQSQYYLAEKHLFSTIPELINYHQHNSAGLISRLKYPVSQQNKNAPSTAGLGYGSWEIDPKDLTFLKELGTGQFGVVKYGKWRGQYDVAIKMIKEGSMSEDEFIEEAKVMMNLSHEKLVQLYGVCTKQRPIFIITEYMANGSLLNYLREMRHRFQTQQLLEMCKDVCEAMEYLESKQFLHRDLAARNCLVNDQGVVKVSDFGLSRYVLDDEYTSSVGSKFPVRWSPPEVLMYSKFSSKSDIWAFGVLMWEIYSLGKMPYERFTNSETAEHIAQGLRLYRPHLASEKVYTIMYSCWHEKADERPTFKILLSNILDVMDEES
T1 sequence (Q06187 whole entry): as the sequence (Q06187 whole entry C481S) above, with S481C counted along it
T2 sequence (P00533 25-1210): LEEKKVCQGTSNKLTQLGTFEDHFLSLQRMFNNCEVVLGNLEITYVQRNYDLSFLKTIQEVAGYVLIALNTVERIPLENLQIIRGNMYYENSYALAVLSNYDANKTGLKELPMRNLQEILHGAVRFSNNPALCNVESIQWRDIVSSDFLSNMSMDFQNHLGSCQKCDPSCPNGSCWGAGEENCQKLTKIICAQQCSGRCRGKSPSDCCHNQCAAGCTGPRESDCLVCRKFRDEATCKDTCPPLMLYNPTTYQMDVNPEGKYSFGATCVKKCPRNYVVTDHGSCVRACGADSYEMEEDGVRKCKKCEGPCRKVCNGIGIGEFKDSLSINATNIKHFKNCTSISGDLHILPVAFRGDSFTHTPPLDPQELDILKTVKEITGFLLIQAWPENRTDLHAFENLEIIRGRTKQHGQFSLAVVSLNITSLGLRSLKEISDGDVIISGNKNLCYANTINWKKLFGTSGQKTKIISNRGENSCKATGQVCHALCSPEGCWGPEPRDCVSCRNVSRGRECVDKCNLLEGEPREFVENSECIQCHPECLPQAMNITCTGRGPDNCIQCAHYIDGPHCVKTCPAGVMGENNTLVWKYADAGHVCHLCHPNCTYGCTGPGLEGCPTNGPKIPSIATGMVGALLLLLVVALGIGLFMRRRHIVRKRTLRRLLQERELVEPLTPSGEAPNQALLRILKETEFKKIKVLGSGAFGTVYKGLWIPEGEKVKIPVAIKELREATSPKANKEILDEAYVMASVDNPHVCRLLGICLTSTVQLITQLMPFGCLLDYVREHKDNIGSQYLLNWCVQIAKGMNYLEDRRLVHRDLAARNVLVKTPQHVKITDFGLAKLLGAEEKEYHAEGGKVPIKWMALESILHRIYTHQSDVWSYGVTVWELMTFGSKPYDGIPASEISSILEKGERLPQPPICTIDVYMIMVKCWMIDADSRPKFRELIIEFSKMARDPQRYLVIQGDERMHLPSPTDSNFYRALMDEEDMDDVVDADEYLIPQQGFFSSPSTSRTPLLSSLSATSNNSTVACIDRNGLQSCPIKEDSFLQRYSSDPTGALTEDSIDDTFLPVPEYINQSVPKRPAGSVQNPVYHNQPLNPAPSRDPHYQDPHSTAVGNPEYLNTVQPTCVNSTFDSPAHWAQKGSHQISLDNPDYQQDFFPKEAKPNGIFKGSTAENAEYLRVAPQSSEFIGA

Row | Compound | IC50 [1] | IC50 [2] | IC50 ([3]; Homo sapiens, OCI-Ly10, 72 h) | IC50 [4] | IC50 [3]
1 | COc1ccccc1C(=O)NCc1ccc(-c2nn([C@H]3CCOC3)c(C(F)F)c2C(N)=O)cc1 [Example 112, 5-(difluoromethyl)-3-[4-[[(2-methoxybenzoyl)amino]methyl]phenyl]-1-[(3S)-tetrahydrofuran-3-yl]pyrazole-4-carboxamide] | 100 to 1000 nM | > 10000 nM | > 10000 nM | 100 to 1000 nM | 
2 | COc1ccc(F)cc1C(=O)NCc1ccc(-c2nn(C(C)C3CCOCC3)c(N)c2C(N)=O)cc1 (stereo not shown) [Example 161, 5-amino-3-[4-[[(5-fluoro-2-methoxy-benzoyl)amino]methyl]phenyl]-1-(1-tetrahydropyran-4-ylethyl)pyrazole-4-carboxamide] | 10 to 100 nM | > 10000 nM | 100 to 1000 nM | < 10 nM | 
3 | COc1ccccc1C(=O)NCc1ccc(-c2nn(-c3ccccc3F)c(N)c2C(N)=O)cc1 [Example 39, 5-amino-1-(2-fluorophenyl)-3-[4-[[(2-methoxybenzoyl)amino]methyl]phenyl]pyrazole-4-carboxamide] | < 10 nM | 100 to 1000 nM | 10 to 100 nM | < 10 nM | 
4 | COc1ccccc1C(=O)NCc1ccc(-c2nn(CC(F)(F)F)c(N)c2C(N)=O)c(F)c1 [Example 124, 5-amino-3-[2-fluoro-4-[[(2-methoxybenzoyl)amino]methyl]phenyl]-1-(2,2,2-trifluoroethyl)pyrazole-4-carboxamide] | 10 to 100 nM | 1000 to 10000 nM | 100 to 1000 nM | 10 to 100 nM | 
5 | COc1ccccc1C(=O)NCc1ccc(-c2nn(C3CCCOC3)c(N)c2C(N)=O)cc1 (stereo not shown) [Example 80, 5-amino-3-[4-[[(2-methoxybenzoyl)amino]methyl]phenyl]-1-tetrahydropyran-3-yl-pyrazole-4-carboxamide] | < 10 nM | 100 to 1000 nM | 10 to 100 nM | < 10 nM | 
6 | COc1ccccc1C(=O)NCc1ccc(-c2nn(C3CCOCC3F)c(N)c2C(N)=O)cc1 (single isomer, unassigned) [Example 96, 5-amino-1-[3-fluorotetrahydropyran-4-yl]-3-[4-[[(2-methoxybenzoyl)amino]methyl]phenyl]pyrazole-4-carboxamide] | < 10 nM | 1000 to 10000 nM |  | < 10 nM | 10 to 100 nM
7 | COc1ccccc1C(=O)NCc1ccc(-c2nn(CC3CCCCC3)c(N)c2C(N)=O)cc1 [Example 17, 5-amino-1-(cyclohexylmethyl)-3-[4-[[(2-methoxybenzoyl)amino]methyl]phenyl]pyrazole-4-carboxamide] | < 10 nM | 100 to 1000 nM | 10 to 100 nM | < 10 nM | 
8 | COc1ccccc1C(=O)NCc1ccc(-c2nn(-c3cccnc3)c(N)c2C(N)=O)cc1 [Example 51, 5-amino-3-[4-[[(2-methoxybenzoyl)amino]methyl]phenyl]-1-(3-pyridyl)pyrazole-4-carboxamide] | < 10 nM | 100 to 1000 nM | 10 to 100 nM | < 10 nM | 
9 | COc1ccccc1C(=O)NCc1ccc(-c2nn(C3CCCCC3)c(N)c2C(N)=O)cc1 [Example 18, 5-amino-1-cyclohexyl-3-[4-[[(2-methoxybenzoyl)amino]methyl]phenyl]pyrazole-4-carboxamide] | < 10 nM | 100 to 1000 nM | < 10 nM | < 10 nM | 10 to 100 nM
10 | COc1ccccc1C(=O)NCc1ccc(-c2nn(C[C@@H]3CCCNC3)c(N)c2C(N)=O)cc1 [Example 38, 5-amino-3-[4-[[(2-methoxybenzoyl)amino]methyl]phenyl]-1-[[(3R)-3-piperidyl]methyl]pyrazole-4-carboxamide] | > 10000 nM | > 10000 nM | > 10000 nM | 1000 to 10000 nM | 
11 | COc1ccccc1C(=O)NCc1ccc(-c2nn(C3CCOC(C)C3)c(N)c2C(N)=O)cc1 (mixture of isomers) [Example 85, 5-amino-3-[4-[[(2-methoxybenzoyl)amino]methyl]phenyl]-1-(2-methyltetrahydropyran-4-yl)pyrazole-4-carboxamide] | < 10 nM | 100 to 1000 nM | 10 to 100 nM | < 10 nM | 
12 | COc1ccccc1C(=O)NCc1ccc(-c2nn(C3CCC3)c(N)c2C(N)=O)cc1 [Example 35, 5-Amino-1-cyclobutyl-3-[4-[[(2-methoxybenzoyl)amino]methyl]phenyl]pyrazole-4-carboxamide] | < 10 nM | 1000 to 10000 nM | 10 to 100 nM | < 10 nM | 
13 | COc1ccccc1C(=O)NCC(O)c1ccc(-c2nn(C3CCCC3)c(N)c2C(N)=O)cc1C (stereo not shown) [Example 187, 5-amino-1-cyclopentyl-3-[4-[1-hydroxy-2-[(2-methoxybenzoyl)amino]ethyl]-3-methyl-phenyl]pyrazole-4-carboxamide] | 100 to 1000 nM | 1000 to 10000 nM | 100 to 1000 nM | 100 to 1000 nM | 
14 | COc1ccccc1C(=O)NCc1ccc(-c2nn(-c3ccccn3)c(N)c2C(N)=O)cc1 [Example 53, 5-amino-3-[4-[[(2-methoxybenzoyl)amino]methyl]phenyl]-1-(2-pyridyl)pyrazole-4-carboxamide] | < 10 nM | 100 to 1000 nM | 10 to 100 nM | < 10 nM | 
15 | COc1ccccc1C(=O)NCc1ccc(-c2nn(C3CCCC3)c(N)c2C(N)=O)cn1 [Example 134, 5-amino-1-cyclopentyl-3-[6-[[(2-methoxybenzoyl)amino]methyl]-3-pyridyl]pyrazole-4-carboxamide] | 10 to 100 nM | > 10000 nM | 1000 to 10000 nM | 10 to 100 nM | 
16 | COc1ccc(F)cc1C(=O)NCc1ccc(-c2nn(C3CCOC3)c(N)c2C(N)=O)c(F)c1 (stereo not shown) [Example 105, 5-amino-3-[2-fluoro-4-[[(5-fluoro-2-methoxy-benzoyl)amino]methyl]phenyl]-1-tetrahydrofuran-3-yl-pyrazole-4-carboxamide] | 10 to 100 nM | 1000 to 10000 nM | 100 to 1000 nM | < 10 nM | 
17 | COc1ccccc1C(=O)NCc1ccc(-c2nn(CC(O)C(C)(C)C)c(N)c2C(N)=O)cc1 (stereo not shown) [Example 14, 5-Amino-1-(2-hydroxy-3,3-dimethyl-butyl)-3-[4-[[(2-methoxybenzoyl)amino]methyl]phenyl]pyrazole-4-carboxamide] | 10 to 100 nM | 1000 to 10000 nM | 100 to 1000 nM | 10 to 100 nM | 

Second part, the molecule after the results:

Row | IC50 [1] | IC50 [2] | IC50 ([3]; Homo sapiens, OCI-Ly10, 72 h) | IC50 [4] | IC50 [3] | Compound
18 | < 10 nM | 100 to 1000 nM | 10 to 100 nM | < 10 nM |  | COc1ccccc1C(=O)NCc1ccc(-c2nn(C3CCCC(C(=O)N(C)C)C3)c(N)c2C(N)=O)cc1 (single isomer, unassigned) [Example 70, 5-amino-1-[3-(dimethylcarbamoyl)cyclohexyl]-3-[4-[[(2-methoxybenzoyl)amino]methyl]phenyl]pyrazole-4-carboxamide]
19 | < 10 nM | 100 to 1000 nM | 10 to 100 nM | < 10 nM |  | COc1ccccc1C(=O)NCc1ccc(-c2nn(C3CCC(C)C3)c(N)c2C(N)=O)cc1 (stereo not shown) [Example 5, 5-Amino-3-[4-[[(2-methoxybenzoyl)amino]methyl]phenyl]-1-(3-methylcyclopentyl)pyrazole-4-carboxamide]
20 | < 10 nM | 1000 to 10000 nM | 10 to 100 nM | < 10 nM |  | COc1ccc(F)cc1C(=O)NCc1ccc(-c2nn([C@@H]3CCOC3)c(N)c2C(N)=O)cc1 [Example 164, 5-amino-3-[4-[[(5-fluoro-2-methoxy-benzoyl)amino]methyl]phenyl]-1-[(3R)-tetrahydrofuran-3-yl]pyrazole-4-carboxamide]
21 | < 10 nM | > 10000 nM | 100 to 1000 nM | < 10 nM |  | COc1ccc(F)cc1C(=O)NCc1cc(F)c(-c2nn(C3CCOCC3)c(N)c2C(N)=O)cc1F [Example 146, 5-amino-3-[2,5-difluoro-4-[[(5-fluoro-2-methoxy-benzoyl)amino]methyl]phenyl]-1-tetrahydropyran-4-yl-pyrazole-4-carboxamide]
22 | < 10 nM | 100 to 1000 nM |  | < 10 nM | 10 to 100 nM | CCOC(=O)C1CCCC(n2nc(-c3ccc(CNC(=O)c4ccccc4OC)cc3)c(C(N)=O)c2N)C1 (single isomer, unassigned) [Example 55, ethyl 3-[5-amino-4-carbamoyl-3-[4-[[(2-methoxybenzoyl)amino]methyl]phenyl]pyrazol-1-yl]cyclohexanecarboxylate]
23 | < 10 nM | 1000 to 10000 nM | 10 to 100 nM | < 10 nM |  | COc1ccc(F)cc1C(=O)NCc1ccc(-c2nn(C3CN(C(C)C)CC3(F)F)c(N)c2C(N)=O)cc1 (stereo not shown) [Example 197, 5-amino-1-(4,4-difluoro-1-isopropyl-pyrrolidin-3-yl)-3-[4-[[(5-fluoro-2-methoxy-benzoyl)amino]methyl]phenyl]pyrazole-4-carboxamide]
24 | < 10 nM | 100 to 1000 nM | 10 to 100 nM | < 10 nM |  | COc1ccccc1C(=O)NCc1ccc(-c2nn(C(C)C3CC3)c(N)c2C(N)=O)cc1 (stereo not shown) [Example 131, 5-amino-1-(1-cyclopropylethyl)-3-[4-[[(2-methoxybenzoyl)amino]methyl]phenyl]pyrazole-4-carboxamide]
